pIC50: −log10 of the molar value. Like-named read-outs stand apart in the source and are kept apart here. Blank lines part the entries; values can stand above or below the compound they belong to.
Legend:
KRAS-WT = KRAS-WT (Homo sapiens, UniProt P01116); experiment: SOS-catalyzed nucleotide exchange assay (Procedure A, TR-FRET), KRAS-WT; format: biochemical; conditions: nucleotide exchange, read-out: KRAS WT GNE IC50
Method in brief: (§1)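 RAS (G12C carries C51S/C80L/C118S) loaded with Bodipy-GDP, complexed with Tb-streptavidin; cpd 60 min RT; + SOS/3 mM GTP. G12C 3/40 nM, WT 1/40, NRAS 1.25/40 nM RAS/SOS, 60 min; G12V 1.25/160 nM, 90 min. Normalized to DMSO and saturating inhibitor; 4PL fit.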

[1] = molecular target: KRAS-G12C (C51S/C80L/C118S) (Homo sapiens, UniProt P01116, C118S/C51S/C80L/G12C); experiment: SOS-catalyzed nucleotide exchange assay (Procedure A, TR-FRET), KRAS-G12C; format: biochemical; conditions: nucleotide exchange, Procedure A; read-out: KRAS G12C GNE IC50
Chain of KRAS-G12C (C51S/C80L/C118S) (P01116 with tags, fused parts or gaps isoform P01116-2 G12C/C51S/C80L/C118S): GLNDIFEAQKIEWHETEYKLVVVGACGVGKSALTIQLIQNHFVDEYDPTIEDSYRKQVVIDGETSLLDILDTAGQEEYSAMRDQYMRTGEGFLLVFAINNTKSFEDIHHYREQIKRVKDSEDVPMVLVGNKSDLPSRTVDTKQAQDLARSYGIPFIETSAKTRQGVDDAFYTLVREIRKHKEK
Excerpt: (§2) Procedure for SOS-Catalyzed Nucleotide Exchange Assay for KRAS-WT, G12C/D/V, G13D, HRAS, and NRAS (Procedure A)
(§3) Recombinant KRAS-G12C protein used in this assay has an additional triple mutation (C51S/C80L/C118S). Whereas KRAS-WT, G12D/V, G13D, HRAS and NRAS are in context of their WT protein sequence background. Specifically, the SOS-catalyzed nucleotide exchange assay utilizes a preformed TR-FRET complex containing a specific biotinylated RAS protein (KRAS-WT, G12C/V/D, G13D, HRAS, NRAS; described above) with Bodipy-GDP, and Terbium-streptavidin. Compounds are preincubated with this complex for 60 minutes. Subsequently, recombinant human SOS protein and unlabeled GTP are added to initiate the exchange reaction. Small molecule inhibitors stabilize the Bodipy-GDP complex whereas the untreated protein rapidly exchanges Bodipy-GDP for unlabeled GTP resulting in reduced TR-FRET signal.
(§4) To assemble the preformed TR-FRET complexes, each biotinylated RAS protein is diluted to 2 μM in an EDTA Buffer (20 mM HEPES pH 7.5, 50 mM sodium chloride, 10 mM EDTA, and 0.01% Tween) and incubated at room temperature for one hour. This mixture is then further diluted to 90 nM in an Assay Buffer (20 mM HEPES pH 7.5, 150 mM sodium chloride, 10 mM magnesium chloride, and 0.005% Tween) containing 15 nM of Terbium-Streptavidin (Invitrogen, catalog #PV3577) and 900 nM of Bodipy-GDP (Invitrogen, catalog #G22360) and incubated at room temperature for six hours. It should be noted that this preformed TR-FRET complex for each of the RAS protein were made ahead of time, aliquoted and stored at −80° C. until the day of the experiment.
(§5) Each test compound (10 mM stock in DMSO) is diluted in DMSO to make a final-10-point, 3-fold dilution and is acoustically dispensed into a 384-well assay plate (Corning, catalog #3820) using an Echo 550 (Labcyte). Each well of the assay plate receives 3 μL of a specific 3×RAS preformed TR-FRET complex and 3 μL of Assay Buffer and is incubated at room temperature for 60 minutes (preincubation time). Each well then receives 3 μL of 3×recombinant human SOS protein and GTP (Sigma, G8877) in Assay Buffer and is incubated at room temperature for 30 minutes (G13D), 60 minutes (KRAS WT/G12C/D, H/NRAS) or 90 minutes for G12V. The final reaction in each well of 9 μL consists of 3 mM GTP, specific Ras and SOS proteins in the following concentrations: KRAS-G12C/SOS=3 nM/40 nM, KRAS-WT and G12D/SOS=1 nM/40 nM, KRAS-G12V/SOS=1.25 nM/160 nM. KRAS-G13D/SOS=1.25 nM/0 nM, HRAS and NRAS=1.25 nM/40 nM.
(§6) The time-resolved fluorescence resonance energy transfer (TR-FRET) signal is measured on an Envision (PerkinElmer) plate reader: Excitation filter=340 nm; emission 1=495 nm; emission2=520 nm; dichroic mirror=D400/D505; delay time=[…]. The signal of each well is determined as the ratio of the emission at 520 nm to that at 495 nm. Percent effect of each well is determined after normalization to control wells containing DMSO (no effect) or a saturating concentration of inhibitor (max effect). The apparent effect as a function of compound concentration is fit to a four-parameter logistic equation.

KRAS-G12D = KRAS-G12D (Homo sapiens, UniProt P01116, G12D); experiment: SOS-catalyzed nucleotide exchange assay (Procedure A, TR-FRET), KRAS-G12D; format: biochemical; conditions: nucleotide exchange, read-out: KRAS G12D GNE IC50
Chain of KRAS-G12D (P01116 with tags, fused parts or gaps isoform P01116-2 G12D): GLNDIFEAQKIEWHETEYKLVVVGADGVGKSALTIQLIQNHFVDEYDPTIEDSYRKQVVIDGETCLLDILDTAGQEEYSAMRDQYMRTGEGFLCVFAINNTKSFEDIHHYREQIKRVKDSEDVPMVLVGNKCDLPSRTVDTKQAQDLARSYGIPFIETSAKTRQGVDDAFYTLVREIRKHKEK
Method in brief: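 Signal ratio (520/495 nm, excitation 340 nm) reports Bodipy-GDP retention on biotinylated RAS after SOS-catalyzed exchange with 3 mM GTP. SOS was 40 nM, except 160 nM for G12V. Room-temperature exchange lasted 60 min (90 min for G12V), following a 60 min compound preincubation.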

KRAS-G12V = KRAS-G12V (Homo sapiens, UniProt P01116, G12V); experiment: SOS-catalyzed nucleotide exchange assay (Procedure A, TR-FRET), KRAS-G12V; format: biochemical; conditions: nucleotide exchange, read-out: KRAS G12V GNE IC50
Chain of KRAS-G12V (P01116 with tags, fused parts or gaps isoform P01116-2 G12V): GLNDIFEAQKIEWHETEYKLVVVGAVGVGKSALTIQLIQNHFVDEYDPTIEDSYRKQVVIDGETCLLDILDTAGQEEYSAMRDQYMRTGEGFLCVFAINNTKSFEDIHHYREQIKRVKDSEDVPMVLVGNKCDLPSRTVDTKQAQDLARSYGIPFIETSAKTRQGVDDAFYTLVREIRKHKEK
Method in brief: as §1

KRAS-G13D = KRAS-G13D (Homo sapiens, UniProt P01116, G13D); experiment: SOS-catalyzed nucleotide exchange assay (Procedure A, TR-FRET), KRAS-G13D; format: biochemical; conditions: nucleotide exchange, Procedure A; read-out: KRAS G13D GNE IC50
Chain of KRAS-G13D (P01116 with tags, fused parts or gaps isoform P01116-2 G13D): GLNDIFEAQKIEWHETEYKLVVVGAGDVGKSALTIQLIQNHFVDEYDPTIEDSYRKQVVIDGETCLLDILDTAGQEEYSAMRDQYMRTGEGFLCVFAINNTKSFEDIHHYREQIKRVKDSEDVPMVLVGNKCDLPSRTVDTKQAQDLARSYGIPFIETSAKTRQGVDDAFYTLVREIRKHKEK
Excerpt: as §2, §3, §4, §5, §6

AsPC-1 cells = experiment: Cellular phospho-ERK assay, AsPC-1 cells (homozygous KRAS-G12D); format: cell-based; conditions: Homo sapiens, ASPC1, 2 h, read-out: AsPC1 pERK IC50
Method in brief: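 Cells seeded at 10,000-15,000 per well were incubated overnight, then exposed to compound for 2 hours at 37 °C in a 10-point, 1:3 series topping at 30 μM final. Lysates were assayed by Alpha SureFire Ultra multiplex for p-ERK and total ERK; IC50 came from a 4-parameter logistic fit of their ratio.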

Chain of KRAS-WT (P01116 with tags, fused parts or gaps isoform P01116-2): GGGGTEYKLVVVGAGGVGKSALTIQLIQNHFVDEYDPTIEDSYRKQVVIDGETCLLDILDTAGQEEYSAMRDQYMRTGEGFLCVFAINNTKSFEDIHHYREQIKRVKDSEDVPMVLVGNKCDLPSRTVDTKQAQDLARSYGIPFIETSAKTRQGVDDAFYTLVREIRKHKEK

SMILES: C[C@@]1(O)COCCN(c2nc(OC[C@@]34CCCN3C[C@H](F)C4)nc3sc4c(-c5c(-c6cccs6)c(Cl)cc6[nH]ncc56)nccc4c23)C1 [Ex-143, (6S)-4-(8-(6-chloro-5-(thiophen-2-yl)-1H-indazol-4-yl)-2-(((2R,7aS)-2-fluoro-tetrahydro-1H-pyr-rolizin-7a(5H)-yl)-methoxy)pyrido [4′,3′:4,5]thieno[2,3-d]pyrimidin-4-yl)-6-methyl-1,4-oxaze-pan-6-ol]
pIC50 (KRAS-WT): 6.71
pIC50 [1]: 7.28
pIC50 (KRAS-G12D): 6.97
pIC50 (KRAS-G12V): 6.96
pIC50 (KRAS-G13D): 6.91
pIC50 (AsPC-1 cells; 2 hours compound incubation): 6.48

SMILES: Cc1cc2[nH]ncc2c(-c2nccc3c2sc2nc(OC[C@@]45CCCN4C[C@H](F)C5)nc(N4CCOC[C@@](C)(O)C4)c23)c1C1CCCC1 [Ex-147, (6S)-4-(8-(5-cyclo-pentyl-6-methyl-1H-indazol-4-yl)-2-(((2R,7aS)-2-fluoro-tetrahydro-1H-pyr-rolizin-7a(5H)-yl)-methoxy)pyrido [4′,3′:4,5]thieno[2,3-d]pyrimidin-4-yl)-6-methyl-1,4-oxaze-pan-6-ol]
pIC50 (KRAS-WT): 6.17
pIC50 [1]: 6.36
pIC50 (KRAS-G12D): 6.55
pIC50 (KRAS-G12V): 6.53
pIC50 (KRAS-G13D): 6.03
pIC50 (AsPC-1 cells; 2 hours compound incubation): 5.90

SMILES: C=C(C)c1c(C)cc2[nH]ncc2c1-c1nccc2c1oc1nc(OC[C@]3(CN(C)C)CC3(F)F)nc(N3CCOC[C@@](C)(O)C3)c12 [Ex-293, (6S)-4-(2-(((R)-1-((dimethylamino)methyl)-2,2-difluorocyclopropyl)meth-oxy)-8-(6-methyl-5-(prop-1-en-2-yl)-1H-indazol-4-yl)pyrido[4′,3′:4,5]furo[2,3-d]pyrimidin-4-yl)-6-methyl-1,4-oxazepan-6-ol]
pIC50 (KRAS-WT): 6.34
pIC50 [1]: 6.87
pIC50 (KRAS-G12D): 6.83
pIC50 (KRAS-G12V): 6.69
pIC50 (KRAS-G13D): 6.53
pIC50 (AsPC-1 cells; KRAS-G12D, 2 hours): 6.00

SMILES: Cc1cc2[nH]ncc2c(-c2nccc3c2oc2nc(OC[C@]4(CN(C)C)CC4(F)F)nc(N4CCOC[C@@](C)(O)C4)c23)c1C(F)F [Ex-292, (6S)-4-(8-(5-(difluoromethyl)-6-methyl-1H-indazol-4-yl)-2-(((R)-1-((dimethylamino)methyl)-2,2-difluorocyclopropyl)meth-oxy)pyrido[4′,3′:4,5]furo[2,3-d]pyrimidin-4-yl)-6-methyl-1,4-oxazepan-6-ol]
pIC50 (KRAS-WT): 6.22
pIC50 [1]: 7.11
pIC50 (KRAS-G12D): 6.76
pIC50 (KRAS-G12V): 6.87
pIC50 (KRAS-G13D): 6.51
pIC50 (AsPC-1 cells; KRAS-G12D, 2 hours): 5.64

Second part, the compound after the results:

pIC50 (KRAS-WT): 6.74
pIC50 [1]: 6.44
pIC50 (KRAS-G12D): 7.16
pIC50 (KRAS-G12V): 7.19
pIC50 (KRAS-G13D): 6.76
pIC50 (AsPC-1 cells; KRAS-G12D, 2 hours): 6.25
SMILES: C/C=C(\C)c1c(C)cc2[nH]ncc2c1-c1nccc2c1sc1nc(OC[C@@]34CCCN3C[C@H](F)C4)nc(N3CCOC[C@@](C)(O)C3)c12 [Ex-65, (6S)-4-(8-(5-((E)-but-2-en-2-yl)-6-methyl-1H-indazol-4-yl)-2-(((2R,7aS)-2-fluorotetrahydro-1H-pyrrolizin-7a(5H)-yl)methoxy)pyrido[4′,3′:4,5]thi-eno[2,3-d]pyrimidin-4-yl)-6-methyl-1,4-oxazepan-6-ol]

pIC50 (KRAS-WT): 6.30
pIC50 [1]: 7.14
pIC50 (KRAS-G12D): 6.41
pIC50 (KRAS-G12V): 6.77
pIC50 (KRAS-G13D): 6.65
pIC50 (AsPC-1 cells; 2 hours compound incubation): 5.45
SMILES: Cc1cc2[nH]ncc2c(-c2nccc3c2sc2nc(OC[C@@]45CCCN4C[C@H](F)C5)nc(NC45CC(O)(C4)C5)c23)c1C(F)(F)F [Ex-187, 3-((2-(((2R,7aS)-2-fluoro-tetrahydro-1H-pyrrolizin-7a(5H)-yl)methoxy)-8-(6-methyl-5-(trifluorometh-yl)-1H-indazol-4-yl)pyrido [4′,3′:4,5]thieno[2,3-d]pyrimidin-4-yl)amino)-bicyclo[1.1.1]pentan-1-ol]

pIC50 (KRAS-WT): 6.40
pIC50 [1]: 6.92
pIC50 (KRAS-G12D): 6.82
pIC50 (KRAS-G12V): 6.61
pIC50 (KRAS-G13D): 6.47
pIC50 (AsPC-1 cells; 2 hours compound incubation): 6.15
SMILES: Cc1cc2[nH]ncc2c(-c2nccc3c2sc2nc(OC[C@@]45CCCN4C[C@H](F)C5)nc(N4CCOC[C@@](C)(O)C4)c23)c1-c1cccs1 [Ex-138, (6S)-4-(2-(((2R, 7aS)-2-fluorotetra-hydro-1H-pyrrolizin-7a(5H)-yl)methoxy)-8-(6-methyl-5-(thio-phen-2-yl)-1H-ind-azol-4-yl)pyrido [4′,3′:4,5]thieno[2,3-d]pyrimidin-4-yl)-6-methyl-1,4-oxaze-pan-6-ol]

pIC50 (KRAS-WT): 7.23
pIC50 [1]: 7.11
pIC50 (KRAS-G12D): 7.81
pIC50 (KRAS-G12V): 7.66
pIC50 (KRAS-G13D): 7.53
pIC50 (AsPC-1 cells; 2 hours compound incubation): 6.82
SMILES: Cc1cc2[nH]ncc2c(-c2nccc3c2sc2nc(OC[C@@]45CCCN4C[C@H](F)C5)nc(N4CCOC[C@@](C)(O)C4)c23)c1-c1ccco1 [Ex-146, (6S)-4-(2-(((2R, 7aS)-2-fluorotetra-hydro-1H-pyrrol-izin-7a(5H)-yl)meth-oxy)-8-(5-(furan-2-yl)-6-methyl-1H-indazol-4-yl)pyrido [4′,3′:4,5]thieno[2,3-d]pyrimidin-4-yl)-6-methyl-1,4-oxaze-pan-6-ol]

pIC50 (KRAS-WT): 5.86
pIC50 [1]: 6.84
pIC50 (KRAS-G12D): 6.32
pIC50 (KRAS-G12V): 6.50
pIC50 (KRAS-G13D): 6.07
pIC50 (AsPC-1 cells; 2 hours compound incubation): 5.34
SMILES: Cc1cc2[nH]ncc2c(-c2nccc3c2sc2nc(OC[C@@]45CCCN4C[C@H](F)C5)nc(NC4(CO)COC4)c23)c1C(F)(F)F [Ex-185, (3-((2-(((2R,7aS)-2-fluoro-tetrahydro-1H-pyrrolizin-7a(5H)-yl)methoxy)-8-(6-methyl-5-(trifluoromethyl)-1H-indazol-4-yl)pyrido [4′,3′:4,5]thieno[2,3-d]pyr-imidin-4-yl)amino)oxetan-3-yl)methanol]

pIC50 (KRAS-WT): 6.99
pIC50 [1]: 7.75
pIC50 (KRAS-G12D): 7.49
pIC50 (KRAS-G12V): 7.26
pIC50 (KRAS-G13D): 7.49
pIC50 (AsPC-1 cells; KRAS-G12D, 2 hours): 6.41
SMILES: CC1(O)COCCN(c2nc(OCC34CCCN3CC(F)C4)nc3sc4c(-c5c(C6CC6)c(F)cc6[nH]ncc56)nccc4c23)C1 [Ex-47, (6S)-4-(8-(5-cyclopropyl-6-fluoro-1H-indazol-4-yl)-2-(((2R,7aS)-2-fluorotetrahydro-1H-pyrrolizin-7a(5H)-yl)methoxy)pyrido[4′,3′:4,5]thi-eno[2,3-d]pyrimidin-4-yl)-6-methyl-1,4-oxazepan-6-ol]

From US20260176289A1, “SMALL MOLECULE INHIBITORS OF KRAS PROTEINS” (Merck Sharp & Dohme LLC, priority 2022, published 2026)
